Reference: patent US20180354991A1, “THERAPEUTIC COMPOSITIONS INCLUDING GRAMICIDIN S PEPTIDYL CONJUGATES OR IMIDAZOLE-SUBSTITUTED FATTY ACIDS, VARIANTS THEREOF AND USES THEREOF” (Stealth Biotherapeutics Corp, priority 2015, published 2018)

Test system: neonatal cardiomyocytes
Experiment: Ang II-induced mitochondrial superoxide (Mitosox) in neonatal cardiomyocytes
Assay type: cell-based, mouse
Details: Angiotensin II 1 μM for 3 hours; peptide conjugates 1 nM or equimolar; NAC 0.5 mM
Experimental: Ventricles from mouse neonates younger than 72 hours will be dissected, minced, and enzymatically digested with Blendzyme 4 (45 mg/mL, Roche). After enzymatic digestion, cardiomyocytes will be enriched using differential pre-plating for 2 hours, and seeded on fibronectin-coated culture dishes for 24 hours in DMEM (Gibco) with 20% Fetal Bovine Seium (Sigma) and 25 μM Arabinosylcytosine (Sigma). Cardiomyocytes will be stimulated with Angiotensin II (1 μM) for 3 hours in serum-free DMEM containing 0.5% insulin transferrin-selenium (Sigma), 2 mM glutamine, and 1 mg/mL BSA. […] Samples will be analyzed using excitation/emission of 488/625 nm by flow cytometry. Flow data will be analyzed using FCS Express (De Novo Software, Los Angeles, Calif., U.S.A.), and presented as histogram distributions of Mitosox fluorescence intensity.

CC(=O)N[C@@H](CS)C(=O)O [N-acetyl cysteine]
Ang II-induced Mitosox fluorescence (mitochondrial ROS): not show any effect
